# Experimental data as given in US8563254B2, “Biomarkers of tumor pharmacodynamic response” (Novartis AG, priority 2009, dated 2013).
# Experiments:
# [1] = test system: GTL-16 cells; assay: IL-8 ELISA of GTL-16 culture supernatants; format: cell-based, human
# Description: A malignant melanoma cell line A375 (American Type Culture Collection, Manassas, Va., USA) and gastric cancer cell line, GTL-16 (Prof Silvia Giordano, Institute for Cancer Research and Treatment, Turin, Italy) were cultured in RPMI 1640 supplemented with 10% FBS and 1% penicillin-streptomycin at 37° C. in 5% CO2 (GIBCO reagents, Invitrogen Corporation, Carlsbad, Calif., USA). Cell numbers were determined by ViCell™ XR Cell Viability Analyzer 2.03 (Beckman Coulter, Inc., Fullerton, Calif., USA). Cells were seeded in poly-D-lysine coated plates (BIOCOAT Cell Environments, Becton Dickinson Biosciences, San Jose, Calif., USA).
# Human IL-8 levels in cell culture supernatants from GTL-16 and A375 cells were measured by a sandwich enzyme-linked immunosorbent assay (R&D Systems, Inc., Minneapolis, Minn., USA). Cell culture supernatants were collected from DMSO and NVP-AUY922 treated cells 16, 24, 48 and 72 hr post-treatment and stored at −20° C.
# To better characterize the relationship between Hsp90 inhibitor treatment and effects on IL-8 production, GTL-16 and A375 cells were washed and treated for 24 hr with fresh medium containing various concentrations of NVP-AUY922. For this length of treatment time, maximal inhibition of IL-8 accumulation appears to be reached at 0.3 μM as measured by enzyme-linked immunosorbent assay; this equates to 80% and 60% reductions in GTL-16 and A375 cultures, respectively (FIGS. 2A, B).
# [2] = test system: GTL-16 tumor-bearing mice; assay: Hsp70 expression in GTL-16 xenograft tumors (Western blot, IHC); format: in vivo; settings: GTL-16 tumors, single 75 mg/kg dose i.v.
# Description: (§1) The in vivo study was carried out in strict accordance with Swiss law for animal protection and was approved by the Swiss Cantonal Veterinary Office of Basel-Stadt. GTL-16 (4×10^6) and A375 cells (5×10^6) were inoculated subcutaneously in the right flank in 200 μl Hanks' balanced salt solution (HBSS) or PBS, respectively. Invasive procedures were performed under Forene anesthesia. All experiments were performed in female Harlan HsdNpa: Athymic Nude-nu mice (Laboratory Animal Services, Novartis Pharma AG, Basel). The animals were kept under optimized hygienic conditions with 12 hr dark, 12 hr light conditions. The animals were fed food and water ad libitum. A single 75 mg/kg and 50 mg/kg dose of Hsp90 inhibitor, NVP-AUY922 was administered to the GTL-16 and A375 tumor-bearing mice, when tumors had reached a mean volume of 200 mm^3-500 mm^3 in size. Mice in the control group were injected with the vehicle (D5W). Serum was isolated and tumors dissected over the time course 0-168 hr. Tumors were cut in two halves. One half was paraffin embedded and the other snap frozen, and stored at −80° C.
# (§2) Total protein lysates were prepared from the GTL-16 and A375 cells with RIPA lysis buffer (Upstate, Millipore Corporation, Charlottesville, Va., USA). […] Proteins were quantified by bicinchoninic acid assay (Pierce Biotechnology, Rockford, Ill., USA) for Western blotting. […]
# [3] = test system: A375 tumor-bearing mice; assay: Hsp70 expression in A375 xenograft tumors; format: in vivo; settings: single 50 mg/kg dose i.v.
# Description: as §1, §2
# [4] = test system: tumor-bearing mice; assay: Serum IL-8 in tumor-bearing mice, summary of both models; format: in vivo; settings: single dose
# Description: as §1, with “Serum was isolated and tumors dissected over the time course 0-168 hr. Tumors were cut in two halves. One half was paraffin embedded and the other snap frozen, and stored at −80° C.” left out
# Human IL-8 levels in cell culture supernatants treated with NVP-AUY922 were initially assessed as part of a multiplexed bead-based cytokine panel (hu 27-plex panel I, Bio-rad Laboratories, Hercules, Calif., USA) with a BioPlex Suspension Array System (Bio-rad). Human IL-8 and mouse KC levels in serum derived from GTL-16 and A375 tumor-bearing mice treated with NVP-AUY922 were measured by single-plex cytokine bead-based assay (Milliplex, Millipore, Billerica, Mass., USA). […]
smiles,measurement,setting,value
"CCNC(=O)c1noc(-c2cc(C(C)C)c(O)cc2O)c1-c1ccc(CN2CCOCC2)cc1 [NVP-AUY922, 5-(2,4-Dihydroxy-5-isopropyl-phenyl)-4-(4-morhpolin-4-ylmethyl-phenyl)-isoxazole-3-carboxylic acid ethylamide]",time within which IL-8 production dramatically declines,"[1]; GTL-16, 0.3 μM",≤ 16 h
same,concentration at which maximal inhibition of IL-8 accumulation is reached,"[1]; GTL-16, 24 hr treatment",0.3 µM
same,inhibition at 0.3 µM,"[1]; Homo sapiens, GTL-16, 0.3 μM, 24 hr, ELISA, read-out: reduction of IL-8 accumulation (maximal inhibition)",80%
same,earliest time post-treatment at which Hsp70 is induced in tumor,[2],6 h
same,stable Hsp70 induction in tumor up to,[2],48 h
same,Hsp70 induction in tumor compared with GTL-16 model,[3],same pattern of Hsp70 induction
same,transient decrease in serum IL-8 levels,[4],40-70%
